# Measurements published in US20040166509A1, “Detecting hormonally active compounds” (priority 2002, published 2004).
# Columns and labels:
# [1] = test system: hepatic RNA of LMB; test: LMB gene array (132 genes): hepatic gene expression after IP injection; format: in vivo, largemouth bass (LMB); settings: male LMB liver, two-fold cutoff vs control; for LMB50-1 (clone 50-1) expression / LMB67-1 signal peptidase, endopeptidase expression: 48 h after single IP 4-NP 50 mg/kg
# [2] = test system: hepatic mRNA of adult male SHMs; test: SHM cDNA macroarray (30 genes): hepatic gene expression profiles of exposed fish; format: in vivo, sheepshead minnow (SHM)
# [3] = test system: estrogen receptors alpha, beta, and gamma, and Vtg 1 mRNA; test: Real-time PCR of ER and Vtg 1 mRNA in LMB liver; format: in vivo, largemouth bass (LMB); settings: male LMB liver
# Description: Experimental Design and Sample Collection: Adult male LMB were purchased from American Sports Fish Hatchery (Montgomery, Ala.) and maintained in fiberglass tanks as previously described (Larkin et al., Comp. Biochem. Physiol. B. Biochem. Mol. Biol. 133:543-557, 2002; Larkin et al., Marine Environ. Res. 54:395-399, 2002; and Larkin et al., Comparative Biochemistry and Physiology 133:543-557, 2002). Array technology as a tool to monitor exposure of fish to xenoestrogens. Marine Environ. Res., 2002; Bowman et al., Mol. Cell. Endocrinol. 196:67-77, 2002). Each fish was injected IP with either 50 mg/kg 4-NP (Fluka, St. Louis, Mo. # 74430), the combination of 50 mg/kg 4-NP and 1.0 mg/kg ICI 182,780 (Tocris Cookson), or vehicle, which consisted of ethanol and DMSO (Sigma, St. Louis, Mo. #5879). Each dose was dissolved in 1 ml of ethanol and then diluted to the appropriate concentration with DMSO. The fish were euthanized by submersion in a water bath containing 50-100 ppm […] 48 hours post injection and sacrificed by a sharp blow to the head followed by cervical transaction. The livers were excised and immediately flash frozen in liquid nitrogen. The frozen tissues were stored at −80° C. until RNA was isolated.
# RNA Isolation: Isolation of total RNA from liver tissue was performed with the RNA Stat-60 reagent (Tel-test). Briefly, 30 mg-50 mg of tissue stored in RNA later was homogenized in 0.9 mls STAT 60, choloroform was added, and the mixture was centrifuged at 12,000 g for 15 minutes at 4° C. The extraction process was repeated and the pooled RNA was added to 500 μl isopropanol and allowed to precipitate at −20° C. for at least one hour. Following centrifugation at 12,000 g for 50 minutes, the pellet was washed with 70% ethanol, air dried and resuspended in an appropriate volume (50 μl-120 μl of RNA secure. The samples were treated with RNA secure (Ambion, Austin Tex. #7010) to inactivate contaminating RNases. All isolated RNA was treated with DNase solution (Ambion, Austin, Tex. #1906) following the manufacture's protocol. For all RNA samples, the quantity and quality of total RNA was assessed by spectrophotometric readings at 260 nm and by electrophoresis through a 1% formaldahyde agarose gel stained with ethidium bromide.
# Real-Time PCR: Real time PCR was performed using reagents and a 5700 thermocycler purchased from Applied Biosystems (ABI, Foster City, Calif.). The nucleotide sequences of the primers for the ER subtypes and Vtg 1 are as follows: 5′, […] (SEQ ID NO:563) AND 5′[…] (SEQ ID NO:564). Probes and primers for the ER subtypes and Vtg 1 are described in Bowman et al., Ecotoxicology 8:399-416, 1999; and Bowman et al., Mol. Cell Endocrinol. 196:67-77, 2002. Each real time PCR reaction consisted of 0.01-0.2 μg of reverse transcribed total RNA from liver tissue, 1× universal Taqman master mix (ABI, Foster City, Calif.), and primers and probes in a 25 μl reaction. […] Statistical differences between the treatments were determined by one way analysis of variance with Dunnets post-hoc analysis.
# Measurement of ER and Vtg 1 mRNA by real-time PCR: Real-time PCR is a sensitive assay that can be used to quantitate expression levels of genes. Using this technology, assays were designed to quantitate the expression of 4 genes, estrogen receptors alpha, beta, and gamma, and Vtg 1 in LMB following exposure to 4-NP and 4-NP/ICI 182,780. […]
# [4] = test system: LMB genes (ER alpha, ER gamma, StAR); parameters: species or system largemouth bass (LMB); settings: Table II, test not stated
# [5] = 48 h after single IP dose: E2 2.5 mg/kg or 4-NP 50 mg/kg
# [6] = 48 h after single IP dose: E2 2.5 mg/kg or 4-NP 50 mg/kg, listed as NP
# [7] = 48 h after single IP dose: E2 2.5 mg/kg, 4-NP 50 mg/kg or p,p′-DDE 100 mg/kg
# [8] = 48 h after single IP dose: E2 2.5 mg/kg, 4-NP 50 mg/kg or p,p′-DDE 100 mg/kg, listed as NP
# [9] = 48 h after single IP injection, 4-NP 50 mg/kg alone or with ICI 182,780 1.0 mg/kg, not significant
structure (smiles),measurement,setting,value
"CCCCCCCCCc1ccc(O)cc1 [4-NP, para-nonylphenol]",LMB50-1 (clone 50-1) expression,[1],down-regulated
same,"LMB67-1 signal peptidase, endopeptidase expression",[1],up-regulated
same,LMB50-1 (clone 50-1) expression,[1]; listed as NP,Down reg NP;
same,"LMB67-1 signal peptidase, endopeptidase expression",[1]; listed as NP,Up-reg NP
same,LMB5 vitellogenin-2A expression,[1]; [5],Up reg E2;
same,LMB92-1 (unidentified clone 92-1) expression,[1]; [5],up-regulated
same,LMB94-1 transferrin expression,[1]; [5],down-regulated
same,LMB112-1 cathepsin (Aspartic protease) expression,[1]; [5],up-regulated
same,LMB141 vitellogenin-3 expression,[1]; [5],"up reg E2; NP,"
same,four Vtg genes expression,[1]; [5],up-regulated (only genes that exhibit a two-fold or greater change in expression were considered to be differentially regulated)
same,LMB92-1 (unidentified clone 92-1) expression,[1]; [6],up-reg E2;
same,LMB94-1 transferrin expression,[1]; [6],Down-reg.
same,LMB83 vitellogenin-2 (Vtg 2) expression,[1]; [7],up-reg E2;
same,LMB87 vitellogenin-1 (Vtg 1) expression,[1]; [7],up-reg E2;
same,LMB97 choriogenin-3 expression,[1]; [7],up-regulated
same,LMB108-1 choriogenin-2 expression,[1]; [7],up-regulated
same,LMB97 choriogenin-3 expression,[1]; [8],Up-reg E2;
same,LMB108-1 choriogenin-2 expression,[1]; [8],Up-reg E2; NP;
same,Regulation,[2]; Estrogen receptor alpha (clone ID not given),"up-reg E2; EE2,"
same,Regulation,[2]; clone SHM2-1: vitellogenin alpha (2),"up-reg E2; EE2,"
same,Regulation,[2]; clone SHM11: Transferrin,"dn-reg E2; EE2,"
same,Regulation,[2]; clone SHM41: Ubiquitin-conjugating enzyme 9,up-reg NP
same,Regulation,[2]; clone SHM72-3: Coagulation Factor XI,"up-reg E2; EE2,"
same,Regulation,[2]; clone SHM76-2: Alphal-microglobulin/bikunin precursor (AMBP) protein,"d-reg E2; EE2,"
same,Vtg 1 message levels increase over controls,"[3]; 48 h after single IP 4-NP 50 mg/kg, p<0.05",approximately 40 fold
same,ER α mRNA increase over controls,"[3]; 48 h after single IP injection, 4-NP 50 mg/kg alone (p<0.05) or with ICI 182,780 1.0 mg/kg (p<0.08)",80 fold
same,ER β mRNA decrease vs controls,[3]; [9],approximately 1.3 fold
same,ER γ mRNA decrease vs controls,[3]; [9],~2.6 fold
same,LMB_ER-ALPHA ESTROGEN RECEPTOR ALPHA differentially expressed by,[4],up-reg E2;
